In patent US9879243B2, “Culture medium for cell growth and transfection” (LIFE TECHNOLOGIES CORPORATION, priority 2001, dated 2018):

Experiments:
[1] = tested on: CHO cells; experiment: Effect of replacement compounds on the growth of CHO cells in CD CHO medium without transferrin, three passages; type: cell-based, Chinese hamster; details: third passage
Summary of the method: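 CHO cells seeded at 1×10^5 viable cells/mL in transferrin-free CD CHO medium, 37 °C, 8% CO2, subcultured every 4 days for three passages. Compounds tested alone or complexed with ferric chloride or ferrous sulfate at 25, 50 and 100 μM; growth as mean percentage of the 5 μg/mL holo-transferrin control at the third passage, duplicate cultures.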

[2] = tested on: Sp2/0 cells; experiment: Effect of replacement compounds on the growth of Sp2/0 cells in CD Hybridoma medium without transferrin, three passages; type: cell-based; details: third passage
[3] = tested on: 293 cells; experiment: Effect of replacement compounds on the growth of 293 cells in 293 SFM without transferrin, three passages; type: cell-based, human; details: third passage
[4] = tested on: 293 cells; experiment: β-galactosidase expression after transfection (pCMV-SPORT-β-gal, LIPOFECTAMINE 2000) of 293 cells in monolayer culture, 24-well plates; type: cell-based, human; details: Table 8, replacement compounds 25 μM in test media, 24 hrs post-transfection
Description: When cultured in suspension, cells were split to 3×10^5 viable cells per ml at each passage. On the week of transfection cells were seeded at 3×10^5 viable cells per ml. After ˜48 hrs of growth (day 2) cells were vortexed for 30 seconds and counted and appropriate volumes used for transfection as described in procedures below.
In addition, the base media comprises 2.4 g/L NaHCO3, 2.98 g/L Hepes, 4 mM L-glutamine and 3 ml/L PLURONIC F-68 (Invitrogen Corp., Carlsbad, Calif.).
The osmolarity is adjusted to from about 275-310 mOsm, preferably about 280 mOsm and the pH is adjusted to from about 7.0 to about 7.45 preferably about 7.4 respectively.
Three wells were set up for each treatment. A volume of media corresponding to 3×10^6 viable cells was centrifuged. The supernatant was removed and the cells re-suspended in 600 μl test media. Each well of a 24 well plate received 200 μl of the re-suspended cells.
To prepare the nucleic acid for the transfection experiments, 93 μl test media+3 μl DNA+24 μl LIPOFECTAMINE 2000 were combined in a microfuge tube and complexed for 30 minutes. A 40 μl aliquot of complex was added to each well. 250 μl test media was added to each well five hours after addition of complex. The final cell concentration was 1×10^6 viable cells per well; the final DNA concentration was 1 μg per 1×10^6 viable cells and the final LIPOFECTAMINE 2000 concentration was 8 μl per 1×10^6 viable cells.
24 hrs post-transfection, samples were collected for β-galactosidase quantitation. The contents of duplicate wells were pooled (i.e. ˜2×10^6 cells for the assay) for each sample and transferred to a microfuge tube. The cells were centrifuged, the supernatant was removed and the cells were re-suspended in 1 ml of D-PBS. The cells were pelleted a second time and re-suspended in 1 ml of D-PBS. The samples were then stored at −70° C. Prior to the assay for β-galactosidase, samples were freeze-thawed a total of five times.
293 cells were grown in monolayer culture in the presence of the various replacement compounds indicated and transfection experiments performed as described above. The results are shown in Table 8 and the values are β-galactosidase activity expressed as nanograms of β-galactosidase per 2×10^6 cells. A comparison was made between the transfection efficiency of DNA complexes formed in D-MEM medium and DNA complexes formed in test medium. […]
For cells transfected in 24-well plates, cells densities used were 1×10^6 viable cells per well.

[5] = 25 μM, control 5 μg/mL human holo-transferrin
[6] = 25 μM, control 5 μg/mL human holo-transferrin, iron equimolar where combined
[7] = 50 μM, control 5 μg/mL human holo-transferrin
[8] = 100 μM, control 5 μg/mL human holo-transferrin

Substance	mean percentage of control growth ([1]; 5 μM)	mean percentage of control growth ([1]; 10 μM)	mean percentage of control growth ([1]; 20 μM)	mean percentage of control growth ([2]; 5 μM)	mean percentage of control growth ([2]; 10 μM)	mean percentage of control growth ([2]; 20 μM)	mean percentage of control growth ([3]; 5 μM)	mean percentage of control growth ([3]; 10 μM)	mean percentage of control growth ([3]; 20 μM)	β-galactosidase activity; D-MEM used for complexing, Test media to re-suspend cells [4]	β-galactosidase activity; Test Media used for complexing and to re-suspend cells [4]	mean percentage of control growth [1, 5]	mean percentage of control growth ([1]; 50 μM)	mean percentage of control growth ([1]; 100 μM)	mean percentage of control growth [2, 5]	mean percentage of control growth ([2]; 50 μM)	mean percentage of control growth ([2]; 100 μM)	mean percentage of control growth [3, 6]	mean percentage of control growth [3, 7]	mean percentage of control growth [3, 8]
Deferoxamine Mesylate•Ferric Chloride	50 percentage of control growth	74 percentage of control growth	52 percentage of control growth	0 percentage of control growth	0 percentage of control growth	0 percentage of control growth	101 percentage of control growth	120 percentage of control growth	127 percentage of control growth	154 nanograms of β-galactosidase per 2×10^6 cells	301 nanograms of β-galactosidase per 2×10^6 cells	–	–	–	–	–	–	–	–	–
Ferrous Gluconate•Ascorbic Acid Phosphate	–	–	–	–	–	–	–	–	–	116 nanograms of β-galactosidase per 2×10^6 cells	275 nanograms of β-galactosidase per 2×10^6 cells	91 percentage of control growth	61 percentage of control growth	28 percentage of control growth	92 percentage of control growth	94 percentage of control growth	93 percentage of control growth	86 percentage of control growth	109 percentage of control growth	101 percentage of control growth
Nitriloacetic Acid•Ferric Chloride	–	–	–	–	–	–	–	–	–	45 nanograms of β-galactosidase per 2×10^6 cells	33 nanograms of β-galactosidase per 2×10^6 cells	127 percentage of control growth	107 percentage of control growth	107 percentage of control growth	88 percentage of control growth	87 percentage of control growth	70 percentage of control growth	100 percentage of control growth	118 percentage of control growth	74 percentage of control growth
